Refractive index data for ten molecules are collected here from the NIST ThermoML archive (doi:10.1021/je201289w).

SMILES strings stand for the structures. ± gives the expanded uncertainty stated by the source.

The first data set is described as follows: refractive index (Na D-line) (dimensionless). Particulars: 318.15 K; 101.33 kPa; Liquid; Standard Abbe refractometry.
In general, refractive index refers to the speed of light in vacuum divided by its phase velocity in the sample. Consider `CCn1cc[n+](C)c1.O=S(=O)([O-])O` [1-ethyl-3-methylimidazolium hydrogen sulfate], for which the refractive index is listed as 1.49269 ± 0.00061.
The same measure, in the same setting: with `CCn1cc[n+](C)c1.F[B-](F)(F)F` [1-ethyl-3-methylimidazolium tetrafluoroborate] the figure was 1.4069 ± 0.00061; with `CCn1cc[n+](C)c1.N#C[S-]` [1-ethyl-3-methylimidazolium thiocyanate], 1.54557 ± 0.00064; with `CCn1cc[n+](C)c1.CS(=O)(=O)[O-]` [1-ethyl-3-methylimidazolium methanesulfonate], 1.49039 ± 0.00063.
In the case of `CCC[N+]1(C)CCCC1.O=S(=O)([N-]S(=O)(=O)C(F)(F)F)C(F)(F)F`, the refractive index turned out to be 1.41519 ± 0.00063.

The data set is the same for the next values; noted with them: 323.15 K; 101.33 kPa; Liquid; Standard Abbe refractometry.
Regarding `CCn1cc[n+](C)c1.O=S(=O)([N-]S(=O)(=O)C(F)(F)F)C(F)(F)F`, the refractive index worked out at 1.41597 ± 0.00063.
For the molecule `CCOS(=O)(=O)[O-].CCn1cc[n+](C)c1` [1-ethyl-3-methylimidazolium ethyl sulfate], the refractive index turned out to be 1.47262 ± 0.00062.
Still for that read-out and setting: with `CCCCn1cc[n+](C)c1.O=S(=O)([N-]S(=O)(=O)C(F)(F)C(F)(F)C(F)(F)C(F)(F)F)C(F)(F)C(F)(F)C(F)(F)C(F)(F)F` the figure was 1.38078 ± 0.00064; with `CCn1cc[n+](C)c1.N#C[B-](C#N)(C#N)C#N` [1-ethyl-3-methylimidazolium tetracyanoborate], 1.43913 ± 0.00066.
In the case of `CCn1cc[n+](C)c1.N#CN=C=[N-]` [1-ethyl-3-methylimidazolium dicyanamide], the refractive index came out at 1.50502 ± 0.00064.
Regarding `CCn1cc[n+](C)c1.O=S(=O)([O-])O` [1-ethyl-3-methylimidazolium hydrogen sulfate], the refractive index amounted to 1.49161 ± 0.00061.
For the molecule `CCn1cc[n+](C)c1.F[B-](F)(F)F` [1-ethyl-3-methylimidazolium tetrafluoroborate], the refractive index was determined as 1.4057 ± 0.00061.
Turning to `CCn1cc[n+](C)c1.N#C[S-]` [1-ethyl-3-methylimidazolium thiocyanate], the refractive index is on record as 1.54409 ± 0.00064.
Turning to `CCn1cc[n+](C)c1.CS(=O)(=O)[O-]` [1-ethyl-3-methylimidazolium methanesulfonate], the refractive index was 1.48905 ± 0.00063.
Same read-out and setting: with `CCC[N+]1(C)CCCC1.O=S(=O)([N-]S(=O)(=O)C(F)(F)F)C(F)(F)F` the figure was 1.41389 ± 0.00063.

The same data set, now with this note: 328.15 K; 101.33 kPa; Liquid; Standard Abbe refractometry.
For `CCn1cc[n+](C)c1.O=S(=O)([N-]S(=O)(=O)C(F)(F)F)C(F)(F)F`, the refractive index is listed as 1.41458 ± 0.00063.
On the same count and under the same terms, with `CCOS(=O)(=O)[O-].CCn1cc[n+](C)c1` [1-ethyl-3-methylimidazolium ethyl sulfate] the figure was 1.4713 ± 0.00063; with `CCCCn1cc[n+](C)c1.O=S(=O)([N-]S(=O)(=O)C(F)(F)C(F)(F)C(F)(F)C(F)(F)F)C(F)(F)C(F)(F)C(F)(F)C(F)(F)F`, 1.3793 ± 0.00064.
The same measure, in the same setting: with `CCn1cc[n+](C)c1.N#C[B-](C#N)(C#N)C#N` [1-ethyl-3-methylimidazolium tetracyanoborate] the figure was 1.43745 ± 0.00066.
`CCn1cc[n+](C)c1.N#CN=C=[N-]` [1-ethyl-3-methylimidazolium dicyanamide]: the refractive index is on record as 1.50351 ± 0.00065.
Same read-out and setting: with `CCn1cc[n+](C)c1.O=S(=O)([O-])O` [1-ethyl-3-methylimidazolium hydrogen sulfate] the figure was 1.49052 ± 0.00061; with `CCn1cc[n+](C)c1.F[B-](F)(F)F` [1-ethyl-3-methylimidazolium tetrafluoroborate], 1.40452 ± 0.00062; with `CCn1cc[n+](C)c1.N#C[S-]` [1-ethyl-3-methylimidazolium thiocyanate], 1.54263 ± 0.00064.
Still for that read-out and setting: with `CCn1cc[n+](C)c1.CS(=O)(=O)[O-]` [1-ethyl-3-methylimidazolium methanesulfonate] the figure was 1.48768 ± 0.00063; with `CCC[N+]1(C)CCCC1.O=S(=O)([N-]S(=O)(=O)C(F)(F)F)C(F)(F)F`, 1.41252 ± 0.00063.

The same data set, now with this note: 333.15 K; 101.33 kPa; Liquid; Standard Abbe refractometry.
As for `CCn1cc[n+](C)c1.O=S(=O)([N-]S(=O)(=O)C(F)(F)F)C(F)(F)F`, the refractive index was found to be 1.41319 ± 0.00063.
As to `CCOS(=O)(=O)[O-].CCn1cc[n+](C)c1` [1-ethyl-3-methylimidazolium ethyl sulfate], the refractive index was 1.46994 ± 0.00063.
`CCCCn1cc[n+](C)c1.O=S(=O)([N-]S(=O)(=O)C(F)(F)C(F)(F)C(F)(F)C(F)(F)F)C(F)(F)C(F)(F)C(F)(F)C(F)(F)F`: the refractive index is 1.37783 ± 0.00064.
Regarding `CCn1cc[n+](C)c1.N#C[B-](C#N)(C#N)C#N` [1-ethyl-3-methylimidazolium tetracyanoborate], the refractive index was determined as 1.43578 ± 0.00066.
Same read-out and setting: with `CCn1cc[n+](C)c1.N#CN=C=[N-]` [1-ethyl-3-methylimidazolium dicyanamide] the figure was 1.50191 ± 0.00065; with `CCn1cc[n+](C)c1.O=S(=O)([O-])O` [1-ethyl-3-methylimidazolium hydrogen sulfate], 1.48944 ± 0.00061; with `CCn1cc[n+](C)c1.F[B-](F)(F)F` [1-ethyl-3-methylimidazolium tetrafluoroborate], 1.40327 ± 0.00061.
Take `CCn1cc[n+](C)c1.N#C[S-]` [1-ethyl-3-methylimidazolium thiocyanate]: the refractive index stood at 1.54119 ± 0.00064.
`CCn1cc[n+](C)c1.CS(=O)(=O)[O-]` [1-ethyl-3-methylimidazolium methanesulfonate]: the refractive index came out at 1.48638 ± 0.00063.
Turning to `CCC[N+]1(C)CCCC1.O=S(=O)([N-]S(=O)(=O)C(F)(F)F)C(F)(F)F`, the refractive index is listed as 1.41119 ± 0.00063.

Still in this data set, the particulars now being: 338.15 K; 101.33 kPa; Liquid; Standard Abbe refractometry.
With `CCn1cc[n+](C)c1.O=S(=O)([N-]S(=O)(=O)C(F)(F)F)C(F)(F)F`, the refractive index is recorded as 1.41177 ± 0.00063.
Same read-out and setting: with `CCOS(=O)(=O)[O-].CCn1cc[n+](C)c1` [1-ethyl-3-methylimidazolium ethyl sulfate] the figure was 1.4685 ± 0.00063; with `CCCCn1cc[n+](C)c1.O=S(=O)([N-]S(=O)(=O)C(F)(F)C(F)(F)C(F)(F)C(F)(F)F)C(F)(F)C(F)(F)C(F)(F)C(F)(F)F`, 1.37638 ± 0.00063.
With `CCn1cc[n+](C)c1.N#C[B-](C#N)(C#N)C#N` [1-ethyl-3-methylimidazolium tetracyanoborate], the refractive index is given as 1.43412 ± 0.00065.
On the same count and under the same terms, with `CCn1cc[n+](C)c1.N#CN=C=[N-]` [1-ethyl-3-methylimidazolium dicyanamide] the figure was 1.5003 ± 0.00065; with `CCn1cc[n+](C)c1.O=S(=O)([O-])O` [1-ethyl-3-methylimidazolium hydrogen sulfate], 1.48836 ± 0.00061.
As for `CCn1cc[n+](C)c1.F[B-](F)(F)F` [1-ethyl-3-methylimidazolium tetrafluoroborate], the refractive index is 1.40211 ± 0.00061.
As to `CCn1cc[n+](C)c1.N#C[S-]` [1-ethyl-3-methylimidazolium thiocyanate], the refractive index worked out at 1.53973 ± 0.00063.
Consider `CCn1cc[n+](C)c1.CS(=O)(=O)[O-]` [1-ethyl-3-methylimidazolium methanesulfonate], for which the refractive index was 1.48498 ± 0.00063.
On the same count and under the same terms, with `CCC[N+]1(C)CCCC1.O=S(=O)([N-]S(=O)(=O)C(F)(F)F)C(F)(F)F` the figure was 1.40986 ± 0.00063.

The same data set, now with this note: 343.15 K; 101.33 kPa; Liquid; Standard Abbe refractometry.
`CCn1cc[n+](C)c1.O=S(=O)([N-]S(=O)(=O)C(F)(F)F)C(F)(F)F`: the refractive index is recorded as 1.41037 ± 0.00063.
With `CCOS(=O)(=O)[O-].CCn1cc[n+](C)c1` [1-ethyl-3-methylimidazolium ethyl sulfate], the refractive index amounted to 1.46723 ± 0.00062.
The same measure, in the same setting: with `CCCCn1cc[n+](C)c1.O=S(=O)([N-]S(=O)(=O)C(F)(F)C(F)(F)C(F)(F)C(F)(F)F)C(F)(F)C(F)(F)C(F)(F)C(F)(F)F` the figure was 1.37496 ± 0.00063.
Still for that read-out and setting: with `CCn1cc[n+](C)c1.N#C[B-](C#N)(C#N)C#N` [1-ethyl-3-methylimidazolium tetracyanoborate] the figure was 1.43248 ± 0.00065; with `CCn1cc[n+](C)c1.N#CN=C=[N-]` [1-ethyl-3-methylimidazolium dicyanamide], 1.49865 ± 0.00065; with `CCn1cc[n+](C)c1.O=S(=O)([O-])O` [1-ethyl-3-methylimidazolium hydrogen sulfate], 1.48727 ± 0.0006.
Same read-out and setting: with `CCn1cc[n+](C)c1.F[B-](F)(F)F` [1-ethyl-3-methylimidazolium tetrafluoroborate] the figure was 1.40093 ± 0.00061; with `CCn1cc[n+](C)c1.N#C[S-]` [1-ethyl-3-methylimidazolium thiocyanate], 1.53831 ± 0.00063; with `CCn1cc[n+](C)c1.CS(=O)(=O)[O-]` [1-ethyl-3-methylimidazolium methanesulfonate], 1.48367 ± 0.00063.
Turning to `CCC[N+]1(C)CCCC1.O=S(=O)([N-]S(=O)(=O)C(F)(F)F)C(F)(F)F`, the refractive index is on record as 1.40853 ± 0.00063.

Still in this data set, the particulars now being: 348.15 K; 101.33 kPa; Liquid; Standard Abbe refractometry.
With `CCn1cc[n+](C)c1.O=S(=O)([N-]S(=O)(=O)C(F)(F)F)C(F)(F)F`, the refractive index stood at 1.40902 ± 0.00063.
Take `CCOS(=O)(=O)[O-].CCn1cc[n+](C)c1` [1-ethyl-3-methylimidazolium ethyl sulfate]: the refractive index is reported as 1.46596 ± 0.00062.
Still for that read-out and setting: with `CCCCn1cc[n+](C)c1.O=S(=O)([N-]S(=O)(=O)C(F)(F)C(F)(F)C(F)(F)C(F)(F)F)C(F)(F)C(F)(F)C(F)(F)C(F)(F)F` the figure was 1.3735 ± 0.00064.
Still for that read-out and setting: with `CCn1cc[n+](C)c1.N#C[B-](C#N)(C#N)C#N` [1-ethyl-3-methylimidazolium tetracyanoborate] the figure was 1.43085 ± 0.00065.
The same measure, in the same setting: with `CCn1cc[n+](C)c1.N#CN=C=[N-]` [1-ethyl-3-methylimidazolium dicyanamide] the figure was 1.49708 ± 0.00064; with `CCn1cc[n+](C)c1.O=S(=O)([O-])O` [1-ethyl-3-methylimidazolium hydrogen sulfate], 1.48623 ± 0.00061.
On to `CCn1cc[n+](C)c1.F[B-](F)(F)F` [1-ethyl-3-methylimidazolium tetrafluoroborate], for which the refractive index amounted to 1.39975 ± 0.00061.
Same read-out and setting: with `CCn1cc[n+](C)c1.N#C[S-]` [1-ethyl-3-methylimidazolium thiocyanate] the figure was 1.53687 ± 0.00063.
Same read-out and setting: with `CCn1cc[n+](C)c1.CS(=O)(=O)[O-]` [1-ethyl-3-methylimidazolium methanesulfonate] the figure was 1.4823 ± 0.00063; with `CCC[N+]1(C)CCCC1.O=S(=O)([N-]S(=O)(=O)C(F)(F)F)C(F)(F)F`, 1.40718 ± 0.00062.

The data set is the same for the next values; noted with them: 353.15 K; 101.33 kPa; Liquid; Standard Abbe refractometry.
On to `CCn1cc[n+](C)c1.O=S(=O)([N-]S(=O)(=O)C(F)(F)F)C(F)(F)F`, for which the refractive index worked out at 1.4076 ± 0.00063.
On the same count and under the same terms, with `CCOS(=O)(=O)[O-].CCn1cc[n+](C)c1` [1-ethyl-3-methylimidazolium ethyl sulfate] the figure was 1.46468 ± 0.00062; with `CCCCn1cc[n+](C)c1.O=S(=O)([N-]S(=O)(=O)C(F)(F)C(F)(F)C(F)(F)C(F)(F)F)C(F)(F)C(F)(F)C(F)(F)C(F)(F)F`, 1.37206 ± 0.00063.
On the same count and under the same terms, with `CCn1cc[n+](C)c1.N#C[B-](C#N)(C#N)C#N` [1-ethyl-3-methylimidazolium tetracyanoborate] the figure was 1.42922 ± 0.00065.
Regarding `CCn1cc[n+](C)c1.N#CN=C=[N-]` [1-ethyl-3-methylimidazolium dicyanamide], the refractive index is reported as 1.49557 ± 0.00064.
The same measure, in the same setting: with `CCn1cc[n+](C)c1.O=S(=O)([O-])O` [1-ethyl-3-methylimidazolium hydrogen sulfate] the figure was 1.48512 ± 0.00061.
On the same count and under the same terms, with `CCn1cc[n+](C)c1.F[B-](F)(F)F` [1-ethyl-3-methylimidazolium tetrafluoroborate] the figure was 1.39858 ± 0.00061; with `CCn1cc[n+](C)c1.N#C[S-]` [1-ethyl-3-methylimidazolium thiocyanate], 1.53545 ± 0.00063.
Take `CCn1cc[n+](C)c1.CS(=O)(=O)[O-]` [1-ethyl-3-methylimidazolium methanesulfonate]: the refractive index came to 1.48095 ± 0.00063.
Regarding `CCC[N+]1(C)CCCC1.O=S(=O)([N-]S(=O)(=O)C(F)(F)F)C(F)(F)F`, the refractive index was 1.40589 ± 0.00062.
